In patent publication US11976083B2, “Inhibitors of peptidylarginine deiminases” (Gilead Sciences, Inc., priority 2020, dated 2024):

Biological target: T1, human PAD4 (Homo sapiens, UniProt Q9UM07)
T1 construct: human PAD4 (NM_012387), A2-P663, was PCR amplified; His-SUMO (N, cleaved yes); made in house; host or cells: E. coli BL21(DE3)
Assay: In vitro PAD4 BAEE biochemical assay
Settings: BAEE substrate 3 mM, 5 nM PAD4, 2 mM calcium chloride; geometric mean of multiple experiments
In short: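 Recombinant human PAD4 (5 nM final) with 2 mM CaCl2 was preincubated with compound 30 min at 25 °C in MOPS buffer pH 7.6, then reacted with 3 mM BAEE for 2 h at 25 °C. After EDTA stop, released ammonia was detected by o-phthalaldehyde/DTT fluorescence (ex 405/em 535 nm); IC50 from four-parameter fit, geometric mean.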

T1 sequence (Q9UM07 2-663): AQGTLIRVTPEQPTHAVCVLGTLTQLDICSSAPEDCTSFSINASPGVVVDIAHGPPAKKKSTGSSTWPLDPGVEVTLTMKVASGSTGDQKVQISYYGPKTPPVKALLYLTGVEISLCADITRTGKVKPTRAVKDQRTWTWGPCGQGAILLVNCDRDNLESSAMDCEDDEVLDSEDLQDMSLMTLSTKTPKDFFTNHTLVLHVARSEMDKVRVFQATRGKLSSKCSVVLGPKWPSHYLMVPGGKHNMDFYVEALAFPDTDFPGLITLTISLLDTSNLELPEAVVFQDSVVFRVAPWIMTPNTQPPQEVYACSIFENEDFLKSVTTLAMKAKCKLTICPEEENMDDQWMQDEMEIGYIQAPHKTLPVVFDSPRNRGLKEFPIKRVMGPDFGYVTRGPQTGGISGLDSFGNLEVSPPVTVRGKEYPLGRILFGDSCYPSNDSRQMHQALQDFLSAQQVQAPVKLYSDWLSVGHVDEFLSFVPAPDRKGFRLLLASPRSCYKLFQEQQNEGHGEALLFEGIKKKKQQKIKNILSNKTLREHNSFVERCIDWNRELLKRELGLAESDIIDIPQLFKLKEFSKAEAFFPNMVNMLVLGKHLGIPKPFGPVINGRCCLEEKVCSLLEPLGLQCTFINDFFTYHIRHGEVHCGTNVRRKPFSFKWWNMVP

Row | SMILES | IC50 [nM]
1 | COc1cc(C(=O)N2[C@H]3CC[C@@H]2[C@H](N)C3)cc2nc(-c3cc4ccc5nc4n3C[C@@H]3C[C@H]3COCCC(=O)N[C@@H]5C)c(C)n12 [Example 322, (3~{R},5~{R},12~{R})-18-[7-[(1~{R},2~{R},4~{S})-2-amino-7-azabicyclo[2.2.1]heptane-7-carbonyl]-5-methoxy-3-methyl-imidazo[1,2-a]pyridin-2-yl]-12-methyl-7-oxa-1,11,20-triazatetracyclo[11.5.2.0^{3,5}.0^{16,19}] icosa-13(20),14,16(19),17-tetraen-10-one] | 15
2 | COc1cc(C(=O)N2[C@H]3CC[C@@H]2[C@H](N)C3)cc2nc(-c3cc4ccc5nc4n3C[C@H]3C[C@@H]3COCCC(=O)N[C@@H]5C)c(C)n12 [Example 323, (3~{S),5~{S},12~{R})-18-[7-[(1~{R},2~{R},4~{S})-2-amino-7-azabicyclo[2.2.1]heptane-7-carbonyl]-5-methoxy-3-methyl-imidazo[1,2-a]pyridin-2-yl]-12-methyl-7-oxa-1,11,20-triazatetracyclo[11.5.2.0^{3,5}.0^{16,19}] icosa-13(20),14,16(19),17-tetraen-10-one] | 14
3 | COc1cc(C(=O)N2[C@H]3CC[C@@H]2[C@H](N)C3)cc2nc(-c3cc4ccc5nc4n3CCCCOCC(=O)N[C@@H]5C)c(C)n12 [Example 324, (10~{R})-16-[7-[(1~{R},2~{R},4~{S})-2-amino-7-azabicyclo[2.2.1]heptane-7-carbonyl]-5-methoxy-3-methyl-imidazo[1,2-a]pyridin-2-yl]-10-methyl-6-oxa-1,9,18-triazatricyclo[9.5.2.0^{14,17}]octadeca-11(18),12,14(17),15-tetraen-8-one] | 36
4 | COc1cc(C(=O)N2[C@H]3CC[C@@H]2[C@H](N)C3)cc2nc(-c3cc4ccc5nc4n3C[C@H]3C[C@@H]3COCC(=O)N[C@@H]5C)c(C)n12 [Example 325, (3~{S},5~{S},11~{R})-17-[7-[(1~{R},2~{R},4~{S})-2-amino-7-azabicyclo[2.2.1]heptane-7-carbonyl]-5-methoxy-3-methyl-imidazo[1,2-a]pyridin-2-yl]-11-methyl-7-oxa-1,10,19-triazatetracyclo[10.5.2.0^{3,5}.0^{15,18}] nonadeca-12(19),13,15(18),16-tetraen-9-one] | 16
5 | COc1cc(C(=O)N2[C@H]3CC[C@@H]2[C@H](N)C3)cc2nc(-c3cc4ccc5nc4n3C[C@@H]3C[C@H]3COCC(=O)N[C@@H]5C)c(C)n12 [Example 326, (3~{R},5~{R},11~{R})-17-[7-[(1~{R},2~{R},4~{S})-2-amino-7-azabicyclo[2.2.1]heptane-7-carbonyl]-5-methoxy-3-methyl-imidazo[1,2-a]pyridin-2-yl]-11-methyl-7-oxa-1,10,19-triazatetracyclo[10.5.2.0^{3,5}.0^{15,18}] nonadeca-12(19),13,15(18),16-tetraen-9-one] | 30
6 | COc1cc(C(=O)N2[C@H]3CC[C@@H]2[C@H](N)C3)cc2nc(-c3cc4ccc5nc4n3CC3(CC3)COCCC(=O)N[C@@H]5C)c(C)n12 [Example 329, (10~{R})-16-[7-[(1~{R},2~{R},4~{S})-2-amino-7-azabicyclo[2.2.1]heptane-7-carbonyl]-5-methoxy-3-methyl-imidazo[1,2-a]pyridin-2-yl]-10-methyl-spiro[5-oxa-1,9,18-triazatricyclo[9.5.2.0^{14,17}]octadeca-11(18),12,14(17),15-tetraene-3,1′-cyclopropane]-8-one] | 48
7 | COc1cc(C(=O)N2[C@H]3CC[C@@H]2[C@H](N)C3)cc2nc(-c3cc4ccc5nc4n3CCC3(CCOCC(=O)N[C@@H]5C)CC3)c(C)n12 [Example 330, (11~{R})-17-[7-[(1~{R},2~{R},4~{S})-2-amino-7-azabicyclo[2.2.1]heptane-7-carbonyl]-5-methoxy-3-methyl-imidazo[1,2-a]pyridin-2-yl]-11-methyl-spiro[7-oxa-1,10,19-triazatricyclo[10.5.2.0^{15,18}]nonadeca-12(19),13,15(18),16-tetraene-4,1′-cyclopropane]-9-one] | 80
8 | COc1cc(C(=O)N2[C@H]3CC[C@@H]2[C@H](N)C3)cc2nc(-c3cc4ccc5nc4n3CCC3(CC3)COCCC(=O)N[C@@H]5C)c(C)n12 [Example 331, (11~{R})-17-[7-[(1~{R},2~{R},4~{S})-2-amino-7-azabicyclo[2.2.1]heptane-7-carbonyl]-5-methoxy-3-methyl-imidazo[1,2-a]pyridin-2-yl]-11-methyl-spiro[6-oxa-1,10,19-triazatricyclo[10.5.2.0^{15,18}]nonadeca-12(19),13,15(18),16-tetraene-4,1′-cyclopropane]-9-one] | 69
9 | COc1cc(C(=O)N2[C@H]3CC[C@@H]2[C@H](N)C3)cc2nc(-c3cc4ccc5nc4n3CCCCC[C@H](OC)CC(=O)N[C@@H]5C)c(C)n12 [Example 332, (7~{S},11~{R})-17-[7-[(1~{R},2~{R},4~{S})-2-amino-7-azabicyclo[2.2.1]heptane-7-carbonyl]-5-methoxy-3-methyl-imidazo[1,2-a]pyridin-2-yl]-7-methoxy-11-methyl-1,10,19-triazatricyclo[10.5.2.0^{15,18}]nonadeca-12(19),13,15(18),16-tetraen-9-one] | 20
10 | COc1cc(C(=O)N2[C@H]3CC[C@@H]2[C@H](N)C3)cc2nc(-c3cc4ccc5nc4n3CCCCC[C@@H](OC)CC(=O)N[C@@H]5C)c(C)n12 [Example 333, (7~{R},11~{R})-17-[7-[(1~{R},2~{R},4~{S})-2-amino-7-azabicyclo[2.2.1]heptane-7-carbonyl)-5-methoxy-3-methyl-imidazo[1,2-a]pyridin-2-yl]-7-methoxy-11-methyl-1,10,19-triazatricyclo[10.5.2.0^{15,18}]nonadeca-12(19),13,15(18),16-tetraen-9-one] | 33
11 | COc1cc(C(=O)N2[C@H]3CC[C@@H]2[C@H](N)C3)cc2nc(-c3cc4ccc5nc4n3C[C@H]3C[C@H]3COCCC(=O)N[C@@H]5C)n(C)c12 [Example 336, (3~{S),5~{R},12~{R})-18-[5-[(1~{R},2~{R},4~{S})-2-amino-7-azabicyclo[2.2.1]heptane-7-carbonyl]-7-methoxy-1-methyl-benzimidazol-2-yl]-12-methyl-7-oxa-1,11,20-triazatetracyclo[11.5.2.0^{3,5}.0^{16,19}] icosa-13(20),14,16(19),17-tetraen-10-one] | 34
12 | COc1cc(C(=O)N2[C@H]3CC[C@@H]2[C@H](N)C3)cc2nc(-c3cc4ccc5nc4n3C[C@@H]3C[C@@H]3COCCC(=O)N[C@@H]5C)n(C)c12 [Example 337, (3~{R},5~{S},12~{R})-18-[5-[(1~{R},2~{R},4~{S})-2-amino-7-azabicyclo[2.2.1]heptane-7-carbonyl]-7-methoxy-1-methyl-benzimidazol-2-yl]-12-methyl-7-oxa-1,11,20-triazatetracyclo[11.5.2.0^{3,5}.0^{16,19}] icosa-13(20),14,16(19),17-tetraen-10-one] | 32
13 | COc1cc(C(=O)N2[C@H]3CC[C@@H]2[C@H](N)C3)cc2nc(-c3cc4ccc5nc4n3CC[C@H]3C[C@H]3COCCC(=O)N[C@@H]5C)n(C)c12 [Example 338, (4~{R},6~{R},13~{R})-19-[5-[(1~{R},2~{R},4~{S})-2-amino-7-azabicyclo[2.2.1]heptane-7-carbonyl]-7-methoxy-1-methyl-benzimidazol-2-yl]-13-methyl-8-oxa-1,12,21-triazatetracyclo[12.5.2.0^{4,6}.0^{17,20}] henicosa-14(21),15,17(20),18-tetraen-11-one] | 53
14 | COc1cc(C(=O)N2[C@H]3CC[C@@H]2[C@H](N)C3)cc2nc(-c3cc4ccc5cc4n3CCCCCC[C@](C)(OC)C(=O)N[C@@H]5C)n(C)c12 [Example 339, (8~{S),11~{R})-17-[5-[(1~{R},2~{R},4~{S})-2-amino-7-azabicyclo[2.2.1]heptane-7-carbonyl]-7-methoxy-1-methyl-benzimidazol-2-yl]-8-methoxy-8,11-dimethyl-1,10-diazatricyclo[10.5.2.0^{15,18}]nonadeca-12(19),13,15(18),16-tetraen-9-one] | 39
15 | COc1cc(C(=O)N2[C@H]3CC[C@@H]2[C@H](N)C3)cc2nc(-c3cc4ccc5cc4n3CCCCCC[C@@](C)(OC)C(=O)N[C@@H]5C)n(C)c12 [Example 340, (8~{R},11~{R})-17-[5-[(1~{R},2~{R},4~{S})-2-amino-7-azabicyclo[2.2.1]heptane-7-carbonyl]-7-methoxy-1-methyl-benzimidazol-2-yl]-8-methoxy-8,11-dimethyl-1,10-diazatricyclo[10.5.2.0^{15,18}]nonadeca-12(19),13,15(18),16-tetraen-9-one] | 61
16 | COCC1(C)CCCCCCn2c(-c3nc4cc(C(=O)N5[C@H]6CC[C@@H]5[C@H](N)C6)cc(OC)c4n3C)cc3ccc(cc32)[C@@H](C)NC1=O (some centres unmarked) [Example 341, (11~{R})-17-[5-[(1~{R},2~{R},4~{S})-2-amino-7-azabicyclo[2.2.1]heptane-7-carbonyl]-7-methoxy-1-methyl-benzimidazol-2-yl]-8-(methoxymethyl)-8,11-dimethyl-1,10-diazatricyclo[10.5.2.0^{15,18}]nonadeca-12(19),13,15(18),16-tetraen-9-one] | 59
17 | COc1cc(C(=O)N2[C@H]3CC[C@@H]2[C@H](N)C3)cc2nc(-c3cc4ccc5cc4n3CCCOC[C@H]3C[C@H]3C(=O)N[C@@H]5C)n(C)c12 [Example 342, (2~{R},5~{R},7~{S})-14-[5-[(1~{R},2~{R},4~{S})-2-amino-7-azabicyclo[2.2.1]heptane-7-carbonyl]-7-methoxy-1-methyl-benzimidazol-2-yl]-2-methyl-9-oxa-3,13-diazatetracyclo[11.5.2.0^{5,7}.0^{16,20}] icosa-1(19),14,16(20),17-tetraen-4-one] | 43
